Read-outs that look alike come from different tables or passages of the source.
Experiments:
HUVEC cells [1] = experiment: Boyden chamber cell migration assay; type: cell-based, human; settings: 25 μM COB223 in upper chamber
Procedure: The assay was performed using 24-multiwell plates and individual cell culture inserts bearing a porous (size of pores: 3 μm) and dyed bottom membrane, which were purchased from BD (FluoroBlok^TM). HUVEC cells were rendered fluorescent by incubation for 24 h in the presence of 5 μg/ml of Di-I (1,1′-dioctadecyl-3,3,3′3′-tetramethylindocarbocyanine perchlorate) and subsequently seeded (5 × 10^4 cells/insert) in the upper chambers (inserts) in serum-free culture medium supplemented with 25 μM COB223 or with vehicle (DMSO). Serum supplemented medium (5% FCS) was placed in the lower chambers (plate wells). After incubation for 4 h or 24 h at 37°C, the fluorescence of cells that had passed through the dyed membrane was measured on a plate reader at 540 nm/570 nm excitation/emission wavelengths. […]
Figure S1: Effect of COB223 on endothelial cell migration. […] Wound closure was measured after 24 h and 48 h of incubation as described in Material and Methods. […]
(B) Boyden chamber assay: The technique is described in Material and Methods. We measured the passage of fluorescently labeled HUVEC cells through a 3 μm-porous membrane in response to fetal calf serum used as a chemo-attractant. […] The Figure represents the mean fluorescence ± SD of duplicate determinations after 24 h or 48h of incubation from two independent experiments. […]

3T3 cells = experiment: 3H-thymidine incorporation, 3T3; type: cell-based; settings: 3T3 fibroblasts
Procedure: Cells were treated with molecules in complete medium. After 22 h, 1 μCi per well H^3 thymidine was added for 2 hours. Cells are then fixed by 10% trichloroacetic acid and harvested with 0.2N NaOH, 1% SDS. Radioactivity was measured in a beta counter.

HUVEC cells [2] = experiment: Cell viability WST-1, HUVEC; type: cell-based, human; settings: confluent HUVEC, 24 h at 37°C
Procedure: Once they had reached confluency, cells were kept for 24 hours in medium supplemented with 0.5% FCS (LLC/2 and 3T3 cells) or 2.5% FCS (HUVEC and HMVEC-d cells), in the presence of COB223 at different concentrations. WST-1 assay (Roche Diagnostic, Meylan, France) was then performed according to the manufacturer's instructions.

HMEC-GFP spheroids = experiment: Sprouting of HMEC-GFP spheroids into collagen gels; type: cell-based; settings: Homo sapiens
Procedure: To prepare spheroids, HMEC-GFP cells were seeded at 3000 cells/well in round-bottom 96-multiwell plates in DMEM 1 g/L glucose (Eurobio, Les Ulis, France) containing 0.25% methylcellulose. 48 h later, the spheroids were collected, transferred into flat-bottom 96-well plates and embedded in collagen gel (1.2 mg/mL type I collagen) prepared in a Iscove's modified Dulbecco's medium, supplemented with FGF-2 (10 ng/mL), 50 U/mL penicillin and 50 μg/mL streptomycin. Treatment with COB223 (10 and 20 μM) started right after spheroids were included in the collagen gels. Sprouting was allowed for 24 h at 37°C. Images were acquired by fluorescence microscopy and analysis of gel invasion was performed using the freeware Image J. Statistical analysis was performed using a Kruskal & Wallis test.
HMEC-GFP cells were developed as spheroids in an Iscove's modified Dulbecco's medium containing 0.2% methylcellulose in round-bottom 96-multiwell plate. Two days later, spheroids were collected and invasion was allowed in a Iscove's modified Dulbecco's medium, supplemented with 1.2 mg/mL collagen I, 50 U/mL Penicillin, 50 μg/mL streptomycin. Molecules (10 or 20 μM) or FGF-2 (10 ng/mL) were added in the preparation before collagen gelification.

[3] = tested on: neovascular response to FGF-2; experiment: Mouse sponge angiogenesis assay; type: in vivo; settings: Balb/c mice, COB223 100 μM injected into sponge, day 7
Procedure: Disc Cellspon cellulose sponges (thickness 2 mm, diameter 10 mm, Cellomeda; Turku, Finland) were implanted under the skin of Balb-c mice under general anesthesia. Mice were divided in three groups receiving either DMSO, FGF-2, or FGF-2 and COB223 (groups of respectively 6, 7 and 8 mice). […] DMSO, FGF-2 and/or COB223 (50 μL) were injected again into the sponges through the skin on day 1 and 2. A third injection of COB223 alone was performed on day 4. On day 7, the vascularization of the sponges was imaged by non-invasive fluorescence imaging after i.p. injection of RAFT-(cRGD)4 (Angiostamp^TM, Fluoptics, Grenoble, France) as described in [9]. The mice were then anesthetized and sacrificed by cervical dislocation on day 7 and the sponges were rapidly excised and photographed. Each sponge was then homogenized in 1 mL RIPA lysis buffer and the supernatants were used for quantification. The extent of vascularization of the sponge implants was assessed by measuring the amount of hemoglobin using the Drabkin's reagent (Sigma).

VEGFR2 (KDR) = VEGFR2 (KDR) (Homo sapiens, UniProt P35968); experiment: In vitro kinase assay VEGFR2; type: biochemical; settings: concentrations up to 50 μM
Procedure: We first wondered whether COB223 required to be internalized to exert its biological effect. For this, we synthesized a covalent complex between BSA and COB223 and purified it. […] In vitro kinase assays were performed with a panel of purified protein-kinases involved in mitogenic signaling, including VEGFR2, FGFR1, FGFR2, PDGFRß, Met, Raf, MEK1, ERK1, ERK2, PKCα, PKCβI, PKCβII, PKCζ as indicated in Table 2. […] We then analyzed the effect of COB223 on VEGF-induced phosphorylations of VEGFR2, MEK and ERK1/2 (Figure 9). […] (Figure 9A, 9B). […] It was also specific of the p42/p44 MAP kinase pathway as activation of p38 MAP kinase phosphorylation in HUVEC cells by VEGF or serum was unaffected by COB223 (data not shown). The activation of src phosphorylation by VEGF in HUVECs was also unaffected by COB223 (data not shown).

Chain of VEGFR2 (KDR) (P35968 20-1356, species assumed): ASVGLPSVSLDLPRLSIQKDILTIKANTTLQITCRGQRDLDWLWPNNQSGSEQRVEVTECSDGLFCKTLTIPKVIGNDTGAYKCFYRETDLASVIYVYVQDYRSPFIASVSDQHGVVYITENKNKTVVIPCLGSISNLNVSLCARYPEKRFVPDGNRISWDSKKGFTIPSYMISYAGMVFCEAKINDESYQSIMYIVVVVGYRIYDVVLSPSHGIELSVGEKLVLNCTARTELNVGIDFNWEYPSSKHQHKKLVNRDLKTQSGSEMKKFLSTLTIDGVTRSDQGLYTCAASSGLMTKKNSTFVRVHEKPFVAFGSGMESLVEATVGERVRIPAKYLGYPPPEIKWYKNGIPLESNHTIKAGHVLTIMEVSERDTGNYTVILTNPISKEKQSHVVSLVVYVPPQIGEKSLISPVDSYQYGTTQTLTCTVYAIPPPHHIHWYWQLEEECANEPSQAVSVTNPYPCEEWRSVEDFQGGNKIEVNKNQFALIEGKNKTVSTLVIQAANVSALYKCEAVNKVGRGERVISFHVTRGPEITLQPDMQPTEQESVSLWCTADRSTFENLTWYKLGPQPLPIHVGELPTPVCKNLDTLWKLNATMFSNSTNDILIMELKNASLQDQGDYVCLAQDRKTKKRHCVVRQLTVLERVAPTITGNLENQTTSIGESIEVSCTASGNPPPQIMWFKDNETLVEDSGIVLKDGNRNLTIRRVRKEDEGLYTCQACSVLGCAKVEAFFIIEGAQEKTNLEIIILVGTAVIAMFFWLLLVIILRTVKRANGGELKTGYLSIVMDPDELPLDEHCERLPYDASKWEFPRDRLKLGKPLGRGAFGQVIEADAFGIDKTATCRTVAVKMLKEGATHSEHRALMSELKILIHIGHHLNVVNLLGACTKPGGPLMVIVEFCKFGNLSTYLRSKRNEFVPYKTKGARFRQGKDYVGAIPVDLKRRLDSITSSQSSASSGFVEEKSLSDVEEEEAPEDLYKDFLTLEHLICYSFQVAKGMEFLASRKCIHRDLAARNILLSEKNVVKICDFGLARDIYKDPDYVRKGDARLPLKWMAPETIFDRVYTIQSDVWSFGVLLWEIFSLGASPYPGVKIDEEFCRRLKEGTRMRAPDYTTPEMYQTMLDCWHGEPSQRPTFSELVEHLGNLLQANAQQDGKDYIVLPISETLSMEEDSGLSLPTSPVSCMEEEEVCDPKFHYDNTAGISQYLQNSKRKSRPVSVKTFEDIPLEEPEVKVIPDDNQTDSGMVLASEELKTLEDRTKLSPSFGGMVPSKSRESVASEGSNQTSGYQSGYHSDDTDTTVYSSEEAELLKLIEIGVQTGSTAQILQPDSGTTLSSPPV

CN(C)c1cccc2c(S(=O)(=O)NCCCN3CCN(CCCNC(=O)OC(C)(C)C)CC3)cccc12 [COB223, tert-Butyl 3-(4-(3-(5-(dimethylamino)naphthalene-1-sulfonamido)propyl)piperazin-1-yl) propylcarbamate]
migration towards fetal calf serum (Boyden chamber) (HUVEC cells [1]): significantly inhibited
effect on cell proliferation (3T3 cells): no effect
cytotoxic concentrations (HUVEC cells [2]): > 50 µM
inhibition at 10 µM (HMEC-GFP spheroids; 10 μM COB223, 10 ng/ml FGF-2, collagen I gel, read-out: inhibition of FGF-2-stimulated sprouting): 70%
inhibition at 10 µM (HMEC-GFP spheroids; 10 μM COB223, collagen I gel, read-out: inhibition of basal sprouting): 50%
neovascular response to FGF-2 (hemoglobin content and fluorescence imaging) [3]: strong inhibition
kinase inhibition (VEGFR2 (KDR)): None of them was inhibited

— paper PMC4467156, “A new chemical inhibitor of angiogenesis and tumorigenesis that targets the VEGF signaling pathway upstream of Ras” (Oncotarget, 2015)
